The results in this text go back to ChEMBL document CHEMBL5653615 (J Biol Chem, 2013).

The target in assay [1] is T1, Ephrin type-A receptor 3 (Homo sapiens) (UniProt P29320).
T1 sequence (whole entry): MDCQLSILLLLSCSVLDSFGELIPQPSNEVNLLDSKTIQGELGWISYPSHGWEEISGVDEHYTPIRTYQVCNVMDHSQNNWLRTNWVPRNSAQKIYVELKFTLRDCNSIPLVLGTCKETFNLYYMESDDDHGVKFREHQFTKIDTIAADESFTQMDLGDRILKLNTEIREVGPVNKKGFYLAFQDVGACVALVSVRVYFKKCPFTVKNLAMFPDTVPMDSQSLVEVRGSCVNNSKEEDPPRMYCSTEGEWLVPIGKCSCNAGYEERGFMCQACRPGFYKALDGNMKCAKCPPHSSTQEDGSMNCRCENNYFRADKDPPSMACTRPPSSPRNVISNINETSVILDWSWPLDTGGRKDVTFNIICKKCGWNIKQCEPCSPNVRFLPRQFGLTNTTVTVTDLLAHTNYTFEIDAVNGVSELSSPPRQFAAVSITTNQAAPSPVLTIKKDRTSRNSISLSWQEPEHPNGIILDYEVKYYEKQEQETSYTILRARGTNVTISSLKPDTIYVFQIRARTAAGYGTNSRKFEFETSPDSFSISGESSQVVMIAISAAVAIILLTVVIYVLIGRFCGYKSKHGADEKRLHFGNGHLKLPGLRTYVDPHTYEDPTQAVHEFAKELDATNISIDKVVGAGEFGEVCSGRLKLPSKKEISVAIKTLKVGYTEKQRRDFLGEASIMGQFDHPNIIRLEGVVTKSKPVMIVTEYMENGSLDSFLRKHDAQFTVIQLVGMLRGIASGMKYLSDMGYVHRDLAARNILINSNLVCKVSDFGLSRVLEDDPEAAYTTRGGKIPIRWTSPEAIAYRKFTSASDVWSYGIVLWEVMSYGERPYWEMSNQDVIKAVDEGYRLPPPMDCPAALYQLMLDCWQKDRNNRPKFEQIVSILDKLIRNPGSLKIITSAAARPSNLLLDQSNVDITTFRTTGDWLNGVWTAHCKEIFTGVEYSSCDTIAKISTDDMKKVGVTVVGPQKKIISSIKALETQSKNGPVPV
The assay is described as follows: Inhibition of human EPHA3 at 1.82 nM by HotSpot assay relative to control.

Assay [2] is described as follows: Inhibition of tri-phosphorylated human Insulin receptor (978 to 1283 residues) C981S mutant kinase domain expressed in baculovirus infected Sf9 cells incubated for 1 hr by [gamma-33P]ATP assay.
The target of assay [3] is Dual specificity tyrosine-phosphorylation-regulated kinase 1A (Homo sapiens) (UniProt Q13627). The assay is described as follows: Inhibition of human DYRK1 at 18.6 nM by HotSpot assay relative to control.
The target in assay [4] is T2, Tyrosine-protein kinase ZAP-70 (Homo sapiens) (UniProt P43403).
T2 sequence (whole entry): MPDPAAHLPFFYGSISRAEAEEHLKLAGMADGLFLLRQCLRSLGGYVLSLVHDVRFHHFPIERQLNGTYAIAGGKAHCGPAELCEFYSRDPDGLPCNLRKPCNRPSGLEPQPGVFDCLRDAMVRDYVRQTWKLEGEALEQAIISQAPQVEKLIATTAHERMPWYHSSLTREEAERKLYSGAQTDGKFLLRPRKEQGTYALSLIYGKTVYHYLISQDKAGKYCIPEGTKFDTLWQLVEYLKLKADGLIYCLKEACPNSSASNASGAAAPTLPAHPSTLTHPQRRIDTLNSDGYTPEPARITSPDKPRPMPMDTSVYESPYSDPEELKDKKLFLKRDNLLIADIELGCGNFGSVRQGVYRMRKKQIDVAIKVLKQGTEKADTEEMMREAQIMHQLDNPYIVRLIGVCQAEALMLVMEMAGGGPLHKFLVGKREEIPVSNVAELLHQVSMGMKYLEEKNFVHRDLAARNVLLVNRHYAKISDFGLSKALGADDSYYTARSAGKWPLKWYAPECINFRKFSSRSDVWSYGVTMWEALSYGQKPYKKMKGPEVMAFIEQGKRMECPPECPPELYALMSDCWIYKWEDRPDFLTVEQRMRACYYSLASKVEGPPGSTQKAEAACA
The assay is described as follows: Inhibition of human ZAP70 at 18.6 nM by HotSpot assay relative to control.

In assay [5] the target is T3, Serine/threonine-protein kinase Nek1 (Homo sapiens) (UniProt Q96PY6).
T3 sequence (whole entry): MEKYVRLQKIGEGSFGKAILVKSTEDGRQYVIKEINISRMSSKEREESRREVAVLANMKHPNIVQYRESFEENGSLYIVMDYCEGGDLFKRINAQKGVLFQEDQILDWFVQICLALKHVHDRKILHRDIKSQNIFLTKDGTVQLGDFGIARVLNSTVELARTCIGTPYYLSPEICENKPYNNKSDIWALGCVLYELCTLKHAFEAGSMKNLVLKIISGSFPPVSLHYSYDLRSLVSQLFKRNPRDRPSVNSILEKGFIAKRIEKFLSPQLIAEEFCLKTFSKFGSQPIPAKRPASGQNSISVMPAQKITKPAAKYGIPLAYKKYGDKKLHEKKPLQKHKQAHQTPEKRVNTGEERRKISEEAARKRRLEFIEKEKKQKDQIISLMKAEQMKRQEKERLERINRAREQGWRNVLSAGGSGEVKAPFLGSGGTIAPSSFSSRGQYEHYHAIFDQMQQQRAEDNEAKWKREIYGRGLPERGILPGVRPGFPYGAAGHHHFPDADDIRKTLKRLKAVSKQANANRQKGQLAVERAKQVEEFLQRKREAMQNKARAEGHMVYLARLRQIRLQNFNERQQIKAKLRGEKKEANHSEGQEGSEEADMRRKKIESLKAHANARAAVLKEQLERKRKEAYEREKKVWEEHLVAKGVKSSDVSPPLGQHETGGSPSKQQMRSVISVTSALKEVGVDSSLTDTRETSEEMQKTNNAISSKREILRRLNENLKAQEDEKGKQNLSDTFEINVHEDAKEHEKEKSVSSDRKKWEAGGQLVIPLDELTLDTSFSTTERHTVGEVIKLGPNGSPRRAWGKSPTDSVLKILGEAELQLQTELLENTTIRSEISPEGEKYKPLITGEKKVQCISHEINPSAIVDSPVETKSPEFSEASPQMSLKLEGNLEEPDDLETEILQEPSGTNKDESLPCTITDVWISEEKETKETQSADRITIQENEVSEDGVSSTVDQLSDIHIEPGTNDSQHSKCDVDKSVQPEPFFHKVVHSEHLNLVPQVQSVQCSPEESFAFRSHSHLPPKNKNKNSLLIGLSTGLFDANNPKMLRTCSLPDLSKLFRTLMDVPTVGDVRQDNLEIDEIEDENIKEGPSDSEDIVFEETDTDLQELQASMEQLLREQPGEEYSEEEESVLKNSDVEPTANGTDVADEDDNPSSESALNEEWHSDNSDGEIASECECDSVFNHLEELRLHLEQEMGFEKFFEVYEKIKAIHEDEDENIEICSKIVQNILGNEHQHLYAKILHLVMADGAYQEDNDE
The assay is described as follows: Inhibition of human NEK1 at 18.6 nM by HotSpot assay relative to control.

Activity calls are given as the source filed them. No cut-off for these calls is given here.

Take `C[C@@]1(C(=O)Nc2ccc(F)nc2)CCCN1c1nc(Nc2cc(C3CC3)n[nH]2)c2cccn2n1`: the inhibition in assay [1] turned out to be 6.1%.

`Oc1n[nH]c2nnc(-c3c(-c4ccccc4)nn4ccccc34)cc12`: the inhibition result in assay [2] was “inactive”. For the compound `C[C@]1(O)C[C@@H](c2nc(-c3ccc4ccc(-c5ccccc5)nc4c3)c3c(N)nccn32)C1`, the figures for the inhibition in assay [3], in assay [4] and in assay [5] were -1.6%, -3.52% and 5.45%, respectively.
